# Patent publication US20160075653A1, “NEMATICIDAL N-(PHENYLCYCLOALKYL)CARBOXAMIDES AND N-(PHENYLCYCLOALKYL)THIOCARBOXAMIDES” (BAYER CROPSCIENCE AKTIENGESELLSCHAFT, priority 2013, published 2016)
# Assay: Measurement of log P values by HPLC on reversed phase columns (methods [a] pH 2.3, [b] pH 2.7, [c] pH 7.8)
# Format: physicochemical
# Details: HPLC on reversed phase column, method [b], pH 2.7
# In short: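 Retention times were converted to log P by linear interpolation between linear alkan-2-one standards (3 to 16 carbons) of known log P. Eluents, each with 10% to 95% acetonitrile gradient: phosphoric acid 0.1% at pH 2.3 [a]; formic acid 0.1% at pH 2.7, LC-MS [b]; ammonium hydrogen carbonate 0.001 molar at pH 7.8, LC-MS [c].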
row,logP,Compound
1,2.84^[b],O=C(N[C@@H]1CC[C@@H]1c1ccc(Cl)cc1Cl)c1cccnc1Cl (relative stereo) [Example 663]
2,3.33^[b],O=C(N[C@@H]1CC[C@H]1c1ccc(Cl)cc1C(F)(F)F)c1cccnc1Cl (relative stereo) [Example 715]

# Second part, the compound before the results:
row,Compound,logP
1,Cc1nc(C(F)(F)F)c(C(=O)N[C@@H]2CC[C@H]2c2cccc(F)c2C(F)(F)F)s1 (relative stereo) [Example 625],3.56^[b]
2,O=C(N[C@@H]1CC[C@@H]1c1ccc(Cl)cc1C(F)(F)F)c1ccc(Cl)cc1Cl (relative stereo) [Example 705],4.27^[b]
3,Cc1nc(C(F)(F)F)c(C(=O)N[C@@H]2CC[C@H]2c2ccc(Cl)cc2Cl)s1 (relative stereo) [Example 668],3.91^[b]
4,O=C(N[C@@H]1CC[C@@H]1c1ccc(Cl)cc1Cl)c1sccc1I (relative stereo) [Example 671],4.20^[b]
5,Cc1nc(C(F)(F)F)c(C(=O)N[C@@H]2CC[C@@H]2c2ccccc2C(F)(F)F)s1 (relative stereo) [Example 634],3.34^[b]
6,O=C(N[C@@H]1CC[C@@H]1c1ccccc1C(F)(F)F)c1sccc1I (relative stereo) [Example 636],3.83^[b]

# Same assay, conditions: HPLC on reversed phase columns, method [b], pH 2.7
row,logP,Compound
1,2.62^[b],O=C(N[C@@H]1CCC[C@H]1c1ccc(F)c(F)c1)c1ccncc1F (relative stereo) [Example 107]
2,2.00^[b],Cn1cc(C(=O)N[C@@H]2CCC[C@@H]2c2ccc(F)c(F)c2)c(=O)[nH]1 (relative stereo) [Example 113]
3,2.86^[b],Cc1ccc(C(=O)N[C@@H]2CCC[C@@H]2c2ccc(F)c(F)c2)c(Cl)n1 (relative stereo) [Example 117]
4,2.57^[b],Cc1ncc(C(=O)N[C@@H]2CCC[C@@H]2c2ccc(F)c(F)c2)s1 (relative stereo) [Example 71]
5,3.35^[b],Cc1cc(C(=O)N[C@@H]2CCC[C@@H]2c2ccc(F)c(F)c2)c(C)o1 (relative stereo) [Example 67]
6,3.51^[b],O=C(N[C@@H]1CCC[C@@H]1c1ccc(F)c(F)c1)c1ccccc1OC(F)F (relative stereo) [Example 119]

# Continued, compound first:
row,Compound,logP
1,O=C(N[C@@H]1C[C@H]1c1ccccc1)c1ccccc1Cl (relative stereo) [Example 46],2.68^[b]
2,O=C(N[C@@H]1CCC[C@@H]1c1ccc(F)c(F)c1)c1sccc1C(F)(F)F (relative stereo) [Example 93],3.63^[b]
3,CCOc1nn(C)cc1C(=O)N[C@@H]1C[C@H]1c1ccccc1 (relative stereo) [Example 43],2.36^[b]
4,O=C(NC1CCC1c1ccc(Cl)cc1C(F)(F)F)c1ccccc1Br (centres unmarked) [Example 723],3.80^[b]
5,Cc1nn(C)c(C)c1C(=O)NC1CC1c1ccc(Cl)cc1 (centres unmarked) [Example 13],2.89^[b]
6,CC1=C(C(=O)N[C@@H]2CCC[C@@H]2c2ccc(F)c(F)c2)SCCO1 (relative stereo) [Example 79],3.15^[b]
7,Cn1cc(C(=O)N[C@@H]2CCC[C@@H]2c2ccc(F)c(F)c2)c(C(F)(F)F)c1 (relative stereo) [Example 91],3.27^[b]

# Same assay, conditions: HPLC reversed phase, method [b] (pH 2.7)
row,logP,Compound
1,3.30^[b],CC(C)Oc1ccc([C@H]2CCC[C@H]2NC(=O)c2ccccc2[N+](=O)[O-])cc1 (relative stereo) [Example 318]
2,3.87^[b],O=C(NC1CCC1c1ccc(Cl)cc1Cl)c1cccc(Cl)c1 (centres unmarked) [Example 457]
3,2.24^[b],Cc1nn(C)cc1C(=O)NC1CCCC1c1ccccc1Cl (centres unmarked) [Example 292]
4,3.20^[b],O=C(NC1CCC1c1c(F)cccc1F)c1ccc(Cl)cc1 (centres unmarked) [Example 444]
5,4.02^[b],O=C(NC1CCCCC1c1ccccc1C(F)(F)F)c1ccccc1Cl (centres unmarked) [Example 388]
6,3.84^[b],O=C(NC1CCCCC1c1ccc(Cl)cc1)c1ccccc1C(F)(F)F (centres unmarked) [Example 364]
7,3.20^[b],O=C(NC1CCCC1c1ccc(Cl)cc1Cl)c1cccnc1Cl (centres unmarked) [Example 356]
8,3.78^[b],O=C(NC1CCCCC1c1ccccc1Br)c1c(F)cccc1F (centres unmarked) [Example 404]
9,3.81^[b],CC(C)Oc1ccc([C@H]2CCC[C@H]2NC(=O)c2ccccc2Br)cc1 (relative stereo) [Example 327]
10,3.69^[b],O=C(N[C@@H]1CC[C@H]1c1ccc(Cl)cc1Cl)c1ncccc1Cl (relative stereo) [Example 257]
11,3.80^[b],O=C(NC1CCCCC1c1ccccc1C(F)(F)F)c1c(F)cccc1F (centres unmarked) [Example 386]
12,2.99^[b],O=C(NC1CCCCC1c1ccc(Cl)cc1)c1cccnc1Cl (centres unmarked) [Example 370]
13,3.18^[b],O=C(NC1CCCC1c1ccccc1Cl)c1c(F)cccc1F (centres unmarked) [Example 391]
14,3.45^[b],O=C(NC1CCCCC1c1ccccc1Cl)c1cccnc1C(F)(F)F (centres unmarked) [Example 378]
15,3.28^[b],O=C(NC1CCCC1c1ccc(Cl)cc1)c1c(F)cccc1F (centres unmarked) [Example 282]
16,3.92^[b],CC(C)Oc1ccc([C@H]2CCC[C@H]2NC(=O)c2ccccc2I)cc1 (relative stereo) [Example 333]
17,2.67^[b],Cc1nn(C)cc1C(=O)NC1CCCC1c1ccc(Cl)cc1Cl (centres unmarked) [Example 359]
18,3.64^[b],O=C(NC1CCCC1c1ccc(Cl)cc1)c1ccccc1I (centres unmarked) [Example 280]
19,2.89^[b],O=C(N[C@@H]1CC[C@H]1c1ccccc1Cl)c1cccnc1C(F)(F)F (relative stereo) [Example 245]
20,3.84^[b],O=C(NC1CCCCC1c1c(F)cccc1F)c1ccccc1I (centres unmarked) [Example 400]

# Second part, the compound before the results:
row,Compound,logP
1,O=C(N[C@@H]1CCC[C@@H]1c1ccccc1F)c1ccc(I)s1 (relative stereo) [Compound 337],3.70^[b]
2,Cn1cc(C(=O)NC2CCCCCC2c2ccccc2C(F)(F)F)c(C(F)F)n1 (centres unmarked) [Example 421],3.69^[b]
3,O=C(NC1CCC1c1ccc(Cl)cc1Cl)c1ccccc1C(F)(F)F (centres unmarked) [Example 474],4.02^[b]
4,O=C(NC1CCCCCC1c1ccccc1C(F)(F)F)c1ccccc1C(F)(F)F (centres unmarked) [Example 420],4.55^[b]
5,Cc1nc(C(F)(F)F)c(C(=O)N[C@@H]2C[C@@H]2c2ccc(Cl)cc2Cl)s1 (relative stereo) [Example 568],3.29^[b]
6,O=C(NC1CCC1c1ccc(Cl)cc1Cl)c1cccnc1C(F)(F)F (centres unmarked) [Example 470],3.45^[b]
7,O=C(N[C@@H]1CC[C@H]1c1ccc(F)cc1C(F)(F)F)c1ccccc1Cl (relative stereo) [Example 512],3.56^[b]
8,Cn1cc(C(=O)N[C@@H]2CC[C@@H]2c2ccccc2Cl)c(C(F)F)n1 (relative stereo) [Example 255],2.47^[b]
9,O=C(NC1CCC1c1ccc(Cl)cc1Cl)c1ccccc1 (centres unmarked) [Example 450],3.75^[b]
10,O=C(N[C@@H]1CC[C@@H]1c1ccccc1Cl)c1sccc1I (relative stereo) [Compound 546],3.72^[b]
11,O=C(NC1CCCCC1c1ccccc1C(F)(F)F)c1ccccc1C(F)(F)F (centres unmarked) [Example 390],4.11^[b]
12,O=C(NC1CCC1c1ccccc1C(F)(F)F)c1cccc(Cl)c1 (centres unmarked) [Example 436],3.59^[b]
13,O=C(N[C@@H]1CC[C@@H]1c1cc(F)ccc1C(F)(F)F)c1ccc(Cl)cc1Cl (relative stereo) [Example 557],3.85^[b]

# Same assay, conditions: HPLC reversed phase, method [c] pH 7.8
row,logP,Compound
1,3.25^[c];,CC(C)Oc1ccc([C@H]2CCC[C@H]2NC(=O)c2ccccc2[N+](=O)[O-])cc1 (relative stereo) [Example 318]
2,3.74^[c];,CC(C)Oc1ccc([C@H]2CCC[C@H]2NC(=O)c2ccccc2Br)cc1 (relative stereo) [Example 327]
3,3.89^[c];,CC(C)Oc1ccc([C@H]2CCC[C@H]2NC(=O)c2ccccc2I)cc1 (relative stereo) [Example 333]

row,Compound,logP
1,O=C(N[C@@H]1CCC[C@@H]1c1ccccc1F)c1ccc(I)s1 (relative stereo) [Compound 337],3.58^[c];

# Same assay, conditions: method [b], HPLC reversed phase, pH 2.7
row,logP,Compound
1,3.33^[b],Cn1nc(C(F)F)c(C(=O)NC2CCCCC2c2ccccc2)c1Cl (centres unmarked) [Example 184]
2,3.74^[b],O=C(NC1CC1c1ccc(Cl)cc1Cl)c1ccccc1I (centres unmarked) [Example 208]
3,2.30^[b],Cn1cc(C(=O)NC2CC2c2ccc(Cl)cc2)c(C(F)F)n1 (centres unmarked) [Example 151]

# Continued, compound first:
row,Compound,logP
1,Cn1cc(C(=O)N(C2CC2)C2CCCCC2c2ccccc2)c(I)n1 (centres unmarked) [Example 145],3.60^[b]
2,Cn1nc(C(F)F)c(C(=O)NC2CC2c2cccc(F)c2)c1F (centres unmarked) [Example 187],2.59^[b]
3,Cc1nn(C)c(F)c1C(=O)N(C1CC1)C1CCCC1c1ccc(Cl)cc1Cl (centres unmarked) [Example 159],4.18^[b]
4,Cn1cc(C(=O)N(C2CC2)C2CCCC2c2ccc(Cl)cc2Cl)c(C(F)F)n1 (centres unmarked) [Example 155],4.23^[b]
5,O=C(N[C@@H]1CC[C@H]1c1ccccc1Cl)c1ccccc1I (relative stereo) [Example 241],3.46^[b]
6,Cc1nn(C)c(F)c1C(=O)N(C1CC1)C1CCCCC1c1ccc(Cl)cc1Cl (centres unmarked) [Example 165],4.59^[b]
7,Cc1cc(C(=O)N(C2CC2)C2CCCC2c2ccc(Cl)cc2Cl)c(C)o1 (centres unmarked) [Example 175],5.39^[b]
8,Cn1nc(C(F)F)c(C(=O)NC2CC2c2ccccc2C(F)(F)F)c1F (centres unmarked) [Example 189],3.00^[b]
9,Cc1cc(C(=O)N(C2CC2)C2CCCCC2c2ccccc2Cl)c(C)o1 (centres unmarked) [Example 177],5.17^[b]
10,Fc1ccc(C2CCCC2NC(=S)C2=C(C(F)(F)F)OCCS2)cc1F (centres unmarked) [Example 150],4.21^[b]

# Same assay, conditions: method [c], HPLC reversed phase, pH 7.8
row,logP,Compound
1,3.64^[c];,O=C(NC1CC1c1ccc(Cl)cc1Cl)c1ccccc1I (centres unmarked) [Example 208]

# Same assay, conditions: reversed phase HPLC columns, pH 2.7, HPLC on reversed phase columns, method [b] (pH 2.7); read-out: logP
row,chromatographic logP,Compound
1,3.71,Cc1nc(C(F)(F)F)c(C(=O)N[C@@H]2CCC[C@@H]2c2ccc(C(F)(F)F)cc2)s1 [Example 747]
2,3.07,O=C(N[C@@H]1CC[C@@H]1c1c(Cl)cccc1Cl)c1nccnc1Cl [Example 734]

# Same assay, conditions: reversed phase HPLC columns, pH 2.7, HPLC reversed phase, method [b] (pH 2.7); read-out: logP
row,chromatographic logP,Compound
1,3.29,O=C(N[C@@H]1CCC[C@@H]1c1ccccc1C(F)(F)F)c1cccnc1C(F)(F)F [Example 290]
2,3.61,O=C(N[C@@H]1CC[C@H]1c1ccccc1C(F)(F)F)c1ccccc1I [Example 497]
3,3.42,O=C(N[C@@H]1CC[C@H]1c1ccccc1C(F)(F)F)c1ccccc1Cl [Example 498]
